Legend:
[1] = molecular target: T1, GRP78ATPase (ATPase domain of human GRP78, residues 26–407) (Homo sapiens, UniProt P11021); assay: Surface plasmon resonance (SPR) binding of nucleotides to immobilized GRP78ATPase; details: for binding to GRP78ATPase upon removal of Mg++ (in words): 5 mM EDTA; for Kd: 25 °C, mean ± SD, n = 3
T1 construct: GRP78ATPase (residues 26–407) was amplified from the full-length human GRP78; hexahistidine tag (pET28-MHL vector) (N); made in house; host or cells: E. coli BL-21(DE3)
Protocol: Successful transformants were grown in Luria Bertani broth (Sigma) for 16 hrs at 37°C, and then transferred to Terrific Broth (Sigma). Growth at 37°C continued until the OD600 reached ~3.0, whereupon the temperature was lowered to 18°C and protein expression was induced by the addition of 0.1 mM isopropyl β-D-thiogalactopyranoside. Sixteen hours post-induction, cells were collected by centrifugation and resuspended in binding buffer (30 mM Tris-HCl pH 7.5, 200 mM NaCl, 1 mM β-ME) supplemented with 0.1% octylphenoxypolyethoxyethanol, 1 mM benzamidine, and 1 mM phenylmethanesulfonyl fluoride. Cells were lysed by French press, and the lysates were clarified by centrifugation. The supernatant was loaded on to a nickel-nitrilotriacetic acid column pre-equilibrated with binding buffer. Following a wash step with binding buffer containing 30 mM imidazole, the bound protein was eluted using a linear gradient from 30 to 500 mM imidazole. The eluate was then loaded on to a 26/60 Superdex 200 size exclusion column (GE Healthcare) pre-equilibrated with 30 mM Tris-HCl pH 7.5, 200 mM NaCl and 1 mM β-ME. Target protein-containing fractions were pooled and concentrated to 30 mg/ml using 10-kDa centrifugal filter units (Amicon), and then frozen in aliquots at -80°C until further use
SPR measurements were performed on Biacore T200 instrument (GE Healthcare) at 25 °C. Purified GRP78ATPase was immobilized on a CM5 sensorchip using NHS/EDC coupling following the manufacturer protocol to a level of ~7000 RUs, a reference surfaces without immobilized GRP78ATPase served as a control for nonspecific binding and refractive index changes. […] Buffer alone injections were used as blanks. […] The running buffer was 10 mM HEPES, pH 7.4, 150 mM NaCl, 0.005% P20 and 2 mM MgCl2. Biacore equilibrium responses recorded at the end of the association step were used to determine the dissociation constant (Kd). Nonspecific signal binding was removed by subtracting a reference channel without GRP78ATPase. Binding responses at the different concentrations were globally fitted to a saturation-binding model in Prism 6 (GraphPad Software Inc., California).
The effect of Mg^++ on binding affinities was explored by repeating the same SPR protocol with two additional running buffers. The first running buffer contained no addition of Mg^++ to determine the effect of Mg^++ co-purified with GRP78ATPase (10 mM HEPES, pH 7.4, 150 mM NaCl and 0.005% P20), and the second running buffer contained 5 mM EDTA to chelate any Mg^++ present in the system (10 mM HEPES, pH 7.4, 150 mM NaCl, 0.005% P20 and 5 mM EDTA).

[2] = tested on: human ecto-nucleotidases (NTPDase1, 2, 3, 8 and NPP1 and 3); details: cited from earlier work
[3] = SPR running buffer untreated (no addition of either MgCl2 or EDTA)
[4] = SPR running buffer with 2 mM MgCl2
[5] = SPR running buffer with 5 mM EDTA (Mg++ removed)

T1 sequence (P11021 26-407): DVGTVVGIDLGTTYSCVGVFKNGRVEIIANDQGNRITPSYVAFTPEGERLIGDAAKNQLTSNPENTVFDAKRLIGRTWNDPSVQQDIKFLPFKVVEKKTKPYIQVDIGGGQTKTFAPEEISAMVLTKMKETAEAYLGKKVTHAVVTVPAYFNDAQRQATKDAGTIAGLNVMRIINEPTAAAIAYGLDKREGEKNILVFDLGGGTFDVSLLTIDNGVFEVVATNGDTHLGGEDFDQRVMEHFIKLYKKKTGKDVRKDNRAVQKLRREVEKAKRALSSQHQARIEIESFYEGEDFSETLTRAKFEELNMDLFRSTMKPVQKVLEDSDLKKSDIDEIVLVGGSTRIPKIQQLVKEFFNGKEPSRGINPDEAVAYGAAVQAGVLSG

Row | Compound | binding to GRP78ATPase upon removal of Mg++ (in words) [1] | Kd [1, 3] | Kd [1, 4] | Kd [1, 5] | affinity relative to ATP (in words) ([1]; purified GRP78ATPase, SPR) | hydrolysis by most human ecto-nucleotidases [2]
1 | Nc1ncnc2c1ncn2[C@@H]1O[C@H](COP(=O)(O)OP(=O)(O)CP(=O)(O)O)[C@@H](O)[C@H]1O [AMPPCP] | almost abolished binding | 52 µM | 59 µM | > 1000 µM | two-orders of magnitude lower | 
2 | Nc1ncnc2c1ncn2[C@H]1C[C@H](O)[C@@H](COP(=O)(O)OP(=O)(O)OP(=O)(O)O)O1 [2'-deoxyATP] | nearly abolished the binding | 750 µM |  | > 1000 µM |  | 
3 | Nc1ncnc2c1ncn2C1OC(COP(=O)(O)OP(=O)(O)C(Br)(Br)P(=O)(O)O)C(O)C1O (stereo not drawn) [AMPPCBrP] |  |  |  |  |  | cannot hydrolyze
4 | Nc1ncnc2c1ccn2C1OC(COP(=O)(O)OP(=O)(O)OP(=O)(O)O)C(O)C1O (stereo not drawn) [7-deazaATP] |  | 0.15 µM | 0.03 µM | 0.9 µM |  | 
5 | Nc1ncnc2c1ncn2[C@@H]1O[C@H](COP(=O)(O)OP(=O)(O)OP(=O)(O)O)[C@@H](O)[C@H]1O [ATP] |  | 0.78 µM | 0.45 µM | 9.8 µM |  | 

Source: article PMC4856263, “Probing the ATP Site of GRP78 with Nucleotide Triphosphate Analogs” (PLoS ONE, 2016)
